This note sets out measurements from patent US20190327965A1, “AGENTS AND METHODS FOR TREATMENT OF PATHOGENS” (Hexima Limited, priority 2014, published 2019).

Test [1] deals with Colletotrichum graminicola.
The next test deals with Saccharomyces cerevisiae. Put plainly: Growth inhibition by hairpin peptide alone, Saccharomyces cerevisiae. It is filed as cell-based. The note with it: hairpin peptide on its own. The source says:
Some α-hairpinin and β-hairpin peptides show efficacy on their own against pathogens at a concentration higher than the concentration used in a combination with a plant defensin.

Where two headings read alike, the source gives them in different places. Bridge positions count the residues as written; N and C are the ends. Peptide text beside a SMILES is read from it. Bounds are passed on as bounds.

Usually IC50 stands for the concentration that inhibits the measured activity by half. In the case of `CC[C@H](C)[C@@H]1NC(=O)[C@H](CCCCN)NC(=O)[C@H]([C@@H](C)CC)NC(=O)[C@H](CCC(N)=O)NC(=O)[C@H](CCCNC(=N)N)NC(=O)[C@@H](NC(=O)[C@@H](NC(=O)[C@H](CO)NC(=O)[C@@H](N)CCCNC(=N)N)C(C)C)CSSC[C@@H](C(=O)N[C@H](C(=O)N[C@@H](CC(N)=O)C(=O)N[C@@H](CCCNC(=N)N)C(=O)N2CCC[C@H]2C(=O)N[C@@H](Cc2ccc(O)cc2)C(=O)O)[C@@H](C)O)NC(=O)[C@H](CCCCN)NC(=O)[C@H](Cc2ccc(O)cc2)NC(=O)[C@H](Cc2ccc(O)cc2)NC(=O)[C@@H]2CSSC[C@H](NC1=O)C(=O)N[C@@H](CCCNC(=N)N)C(=O)N[C@@H](CCCNC(=N)N)C(=O)N[C@@H](CCCNC(=N)N)C(=O)NCC(=O)NCC(=O)N2` [Androctonin] (H-RSVCRQIKICRRRGGCYYKCTNRPY-OH; disulfide 4-20, 10-16 (inferred); N-terminus and C-terminus assumed), the IC50 in the test with Candida albicans worked out at 7 µM; with Fusarium graminearum, 7 µM; in test [1] it was 13 µM; in the test on Trichophyton rubrum, 1000 nM.
Turning to `C[C@@H](O)[C@@H]1NC(=O)[C@H](CCC(N)=O)NC(=O)[C@@H]2CSSC[C@H](NC(=O)[C@H](CCC(N)=O)NC(=O)[C@H](CCCNC(=N)N)NC(=O)[C@H](CCC(N)=O)NC(=O)[C@H](CCCNC(=N)N)NC(=O)[C@H](CCC(=O)O)NC(=O)[C@@H]3CCCN3C(=O)[C@H](CO)NC(=O)[C@H](CCC(N)=O)NC(=O)[C@H](CCC(=O)O)NC(=O)[C@H](CCC(N)=O)NC1=O)C(=O)N[C@@H](CCC(N)=O)C(=O)N[C@@H](CCC(N)=O)C(=O)N[C@@H](CCCNC(=N)N)C(=O)N[C@H](C(=O)N[C@@H](CCC(=O)O)C(=O)N[C@@H](CCCNC(=N)N)C(=O)N[C@@H](CCC(N)=O)C(=O)N[C@@H](Cc1ccc(O)cc1)C(=O)N[C@@H](CCCCN)C(=O)N[C@@H](CCC(=O)O)C(=O)O)CSSC[C@H](NC(=O)[C@H](CCCNC(=N)N)NC(=O)[C@H](Cc1c[nH]cn1)NC(=O)[C@H](Cc1ccc(O)cc1)NC(=O)[C@H](CCC(N)=O)NC(=O)[C@H](CCC(N)=O)NC(=O)[C@H](CCC(N)=O)NC(=O)[C@@H]1CCCN1C(=O)[C@@H](N)CC(=O)O)C(=O)N[C@@H](CCC(N)=O)C(=O)N[C@@H](CCCNC(=N)N)C(=O)N[C@@H](CCCNC(=N)N)C(=O)N2` [Cil_HPN_14F] (H-DPQQQYHRCQRRCQTQEQSPERQRQCQQRCERQYKE-OH; disulfide 9-30, 13-26 (inferred); N-terminus and C-terminus assumed), in the test with Saccharomyces cerevisiae, the IC50 turned out to be 12 µM.
Take `CSCC[C@@H]1NC(=O)[C@@H]2CSSC[C@H](NC(=O)[C@H](CCC(=O)O)NC(=O)[C@H](CCCNC(=N)N)NC(=O)[C@H](CCCNC(=N)N)NC(=O)[C@@H](NC(=O)[C@H](CCC(=O)O)NC(=O)[C@H](CCCCN)NC(=O)CNC(=O)CNC(=O)CNC(=O)CNC(=O)[C@@H](N)Cc3c[nH]cn3)CSSC[C@@H](C(=O)N[C@@H](CCC(=O)O)C(=O)N[C@@H](Cc3c[nH]c4ccccc34)C(=O)N[C@@H](CCCNC(=N)N)C(=O)N[C@@H](CCCNC(=N)N)C(=O)N[C@@H](Cc3c[nH]cn3)C(=O)N[C@@H](CCC(=O)O)C(=O)O)NC(=O)[C@H](CCC(N)=O)NC(=O)[C@H](CCCNC(=N)N)NC1=O)C(=O)N[C@@H](CCCNC(=N)N)C(=O)NCC(=O)N[C@@H](Cc1ccc(O)cc1)C(=O)N[C@@H](CCCNC(=N)N)C(=O)N[C@@H](CC(=O)O)C(=O)N[C@@H](CCC(=O)O)C(=O)N1CCC[C@H]1C(=O)N[C@@H](Cc1c[nH]c3ccccc13)C(=O)N[C@@H](CCCNC(=N)N)C(=O)N[C@@H](CCCCN)C(=O)N[C@@H](CCC(N)=O)C(=O)N[C@@H](CCC(=O)O)C(=O)N2` [Osa_HPN_86B] (H-HGGGGKECRRECRGYRDEPWRKQECMRQCEWRRHE-OH; disulfide 8-29, 12-25 (inferred); N-terminus and C-terminus assumed): the IC50 in the test on Saccharomyces cerevisiae was 8 µM; in the test on Candida albicans it was 9 µM; with Fusarium graminearum, 18 µM; in test [1] it was 13 µM.
Take `CC(C)[C@@H]1NC(=O)[C@H](CCCNC(=N)N)NC(=O)[C@H](Cc2ccccc2)NC(=O)[C@@H](NC(=O)[C@H](Cc2c[nH]c3ccccc23)NC(=O)[C@H](CCCNC(=N)N)NC(=O)[C@@H](N)CCCNC(=N)N)CSSC[C@@H](C(=O)N[C@@H](CCCNC(=N)N)C(N)=O)NC(=O)[C@H](CCCCN)NC(=O)[C@H](CCCNC(=N)N)NC(=O)[C@H](Cc2ccc(O)cc2)NC(=O)[C@@H]2CSSC[C@H](NC1=O)C(=O)N[C@@H](Cc1ccc(O)cc1)C(=O)N[C@@H](CCCNC(=N)N)C(=O)NCC(=O)N[C@@H](Cc1ccccc1)C(=O)N2` [Polyphemusin I] (H-RRWCFRVCYRGFCYRKCR-NH2; disulfide 4-17, 8-13; N-terminus and C-terminus assumed): the IC50 in the test on Candida albicans turned out to be 4 µM; in the test with Fusarium graminearum, 3 µM; in test [1] it was 6 µM; in the test on Trichophyton rubrum it was 1000 nM.
Take `CSCC[C@@H]1NC(=O)[C@H](CC(C)C)NC(=O)[C@@H]2CSSC[C@H](NC(=O)[C@H](CCCNC(=N)N)NC(=O)[C@H](CCC(=O)O)NC(=O)[C@H](CCCNC(=N)N)NC(=O)[C@@H](NC(=O)[C@H](CCCCN)NC(=O)[C@H](CCCNC(=N)N)NC(=O)[C@H](CCCNC(=N)N)NC(=O)CNC(=O)[C@H](CCC(=O)O)NC(=O)CN)CSSC[C@@H](C(=O)N[C@@H](CCCCN)C(=O)N[C@@H](CO)C(=O)N[C@@H](CCCNC(=N)N)C(=O)N[C@@H](CCC(=O)O)C(=O)N[C@@H](CCC(N)=O)C(=O)N[C@@H](CCC(=O)O)C(=O)O)NC(=O)[C@H](CC(=O)O)NC1=O)C(=O)N[C@@H](CCC(=O)O)C(=O)N[C@@H](CCCNC(=N)N)C(=O)N[C@@H](Cc1c[nH]cn1)C(=O)N[C@@H](Cc1c[nH]cn1)C(=O)N[C@@H](CCCNC(=N)N)C(=O)NCC(=O)NCC(=O)N[C@@H](CC(=O)O)C(=O)N[C@@H](Cc1c[nH]c3ccccc13)C(=O)N[C@@H](Cc1c[nH]c3ccccc13)C(=O)N[C@@H](CCC(=O)O)C(=O)N[C@@H](CCCCN)C(=O)N[C@@H](CCC(N)=O)C(=O)N[C@@H](CCCNC(=N)N)C(=O)N2` [Sbi_HPN_104C] (H-GEGRRKCRERCERHHRGGDWWEKQRCLMDCKSREQE-OH; disulfide 7-30, 11-26 (inferred); N-terminus and C-terminus assumed): the concentration for half-maximal inhibition (IC50) in the test on Saccharomyces cerevisiae is over 20 µM; in the test on Candida albicans it was 7 µM; with Fusarium graminearum, 7 µM; in test [1] it was 16 µM.
Take `CC(C)[C@@H]1NC(=O)[C@@H]2CSSC[C@H](NC(=O)[C@H](CCC(N)=O)NC(=O)[C@H](CCCCN)NC(=O)[C@H](CCC(N)=O)NC(=O)[C@@H](NC(=O)[C@H](CCCNC(=N)N)NC(=O)[C@@H](N)CC(=O)O)CSSC[C@@H](C(=O)N[C@@H](CCCNC(=N)N)C(=O)N[C@@H](CCCNC(=N)N)C(=O)NCC(=O)N[C@@H](CCCNC(=N)N)C(=O)NCC(=O)N[C@@H](CO)C(=O)O)NC(=O)[C@H](CC(=O)O)NC(=O)[C@H](CCCNC(=N)N)NC1=O)C(=O)N[C@@H](CCC(N)=O)C(=O)N[C@@H](Cc1c[nH]cn1)C(=O)N[C@@H](Cc1ccc(O)cc1)C(=O)N[C@@H](CO)C(=O)N[C@@H](CC(=O)O)C(=O)N[C@@H](Cc1c[nH]c3ccccc13)C(=O)N[C@@H](CC(=O)O)C(=O)N[C@@H](CCCCN)C(=O)N[C@@H](CCCCN)C(=O)N[C@@H](CCC(N)=O)C(=O)N[C@@H](CCC(N)=O)C(=O)N2` [Sbi_HPN_104I] (H-DRCQKQCQHYSDWDKKQQCVRDCRRGRGS-OH; disulfide 3-23, 7-19 (inferred); N-terminus and C-terminus assumed): the IC50 in the test on Saccharomyces cerevisiae is over 20 µM.
Consider `CSCC[C@@H]1NC(=O)[C@H](CCCNC(=N)N)NC(=O)[C@@H](NC(=O)[C@H](Cc2c[nH]c3ccccc23)NC(=O)[C@H](CCC(N)=O)NC(=O)[C@H](CC(C)C)NC(=O)[C@H](CC(=O)O)NC(=O)CNC(=O)[C@@H](N)CCCCN)CSSC[C@@H](C(=O)N[C@@H](CCCNC(=N)N)C(=O)N[C@@H](CCC(N)=O)C(=O)N[C@@H](CCCNC(=N)N)C(=O)N[C@@H](Cc2c[nH]cn2)C(=O)N[C@@H](CCCNC(=N)N)C(=O)NCC(=O)O)NC(=O)[C@H](CCC(=O)O)NC(=O)[C@H](CCCNC(=N)N)NC(=O)[C@H](CCC(=O)O)NC(=O)[C@@H]2CSSC[C@H](NC(=O)CNC1=O)C(=O)N[C@@H](CCC(N)=O)C(=O)N[C@@H](Cc1c[nH]c3ccccc13)C(=O)N[C@@H](CCC(N)=O)C(=O)N[C@@H](Cc1ccc(O)cc1)C(=O)NCC(=O)N[C@@H](CCCCN)C(=O)N[C@@H](CC(=O)O)C(=O)N[C@@H](CCC(N)=O)C(=O)NCC(=O)N[C@@H](CCCNC(=N)N)C(=O)N[C@@H](CCCNC(=N)N)C(=O)N[C@@H](CO)C(=O)N[C@@H](CCC(=O)O)C(=O)N2` [Sit_HPN_100A] (H-KGDLQWCRMGCQWQYGKDQGRRSECERECRQRHRG-OH; disulfide 7-29, 11-25 (inferred); N-terminus and C-terminus assumed), for which the concentration for half-maximal inhibition (IC50) was 8 µM with Saccharomyces cerevisiae; 8 µM in the test with Candida albicans; 8 µM in the test with Fusarium graminearum; 14 µM in test [1]; 20000 nM in the test on Trichophyton rubrum.
Consider “EcAMP1: α-hairpinin peptide, SEQ ID NO:36, produced recombinantly in E. coli (GSGRGSCRSQCMRRHEDEPWRVQECVSQCRRRRGGGD; EcAMP1 Echinochloa crus-galli)”, for which the IC50 in the test on Saccharomyces cerevisiae was 8 µM; in the test on Candida albicans (read-out: IC50 C. alb), 8 µM; with Fusarium graminearum (read-out: IC50 Fgr), 7 µM; in test [1] (read-out: IC50 Cgr) it was 20 µM.
